Reference: publication PMC10989010, “A panel of janus kinase inhibitors identified with anti-inflammatory effects protect mice from lethal influenza virus infection” (Antimicrobial Agents and Chemotherapy, 2024)
Structures can show the parent of a compound that is named as a salt.

Assays:
MCP1 = test: cells; assay type: cell-based, human; settings: Homo sapiens, U-937, 72 h, read-out: IC50 MCP1
IP-10 = test: cells; assay type: cell-based, human; settings: Homo sapiens, U-937, 72 h, read-out: IC50 IP-10
U937 cells = test: Cytotoxicity assay (CellTiter-Glo); assay type: cell-based, human; settings: U937 cells; CellTiter-Glo; mean of three independent experiments
Protocol: The compound cytotoxicity was determined by CellTiter-Glo Assay (Promega, Madison, WI, USA). After adding 15 µL of CellTiter-Glo reagent to each well, plates were incubated at room temperature for 15 minutes with shaking. The luminescence intensity was determined by a multimode plate reader (Wallac Envision, PerkinElmer, MA, USA).

PR8 virus [1] = test: Viral titers in BALF by TCID50 assay using MDCK cells; assay type: in vivo; settings: 300 TCID50; 20 mg/kg/d; day 7 p.i.; treated versus untreated mice
Protocol: Madin-Darby canine kidney (MDCK) cells (ATCC CCL-34™) were maintained in Dulbecco’s modified Eagle’s medium (DMEM, Gibco, Carlsbad, CA) supplemented with 10% fetal bovine serum (Gibco), 100 U/mL penicillin, and 100 µg/mL streptomycin. Human monocyte cell line U937 (CRL-1593.2) was cultured in RPMI 1640 medium supplemented with 10% fetal bovine serum (Gibco), 100 U/mL penicillin, and 100 µg/mL streptomycin. All these cells were maintained at 37℃ in a 5% CO2 incubator. […] The viral titers were measured using 50% tissue culture infective dose (TCID50) assay in MDCK cells. The 10-day-old embryonated chicken eggs were obtained from Guangdong Wens Dahuanong Biotechnology Co., Ltd (Guangdong, China). Six-week-old BALB/c mice were purchased from Guangdong Medical Laboratory Animal Center (GDMLAC, Guangdong, China) and housed under specific pathogen-free conditions.

[2] = stated as reason for selection; no test or reference printed; cited from earlier work
IL-8 = test: U937 cell-based anti-inflammatory assay for influenza virus infection, IL-8 production (AlphaLISA); design: species or system human; settings: Homo sapiens, U-937, 72 h, read-out: IC50 IL-8
Protocol: U937 cells were seeded in a 96-well culture plate at a density of 1.5 × 10^5 cells per well and incubated for 24 hours prior to virus infection. Subsequently, the cells in each well were infected with the PR8 virus at a multiplicity of infection of 0.05 and treated with serially diluted drugs or left untreated as a control. The drugs were serially diluted threefold, starting from an initial concentration of 200 µM down to 0.01 µM. […] Following this incubation, the supernatants were collected and subjected to AlphaLISA analysis to determine IL-8, IP-10, and MCP1 protein levels.
The AlphaLISA detection kits employed in this study were IL-8 (PerkinElmer AL224), IP-10 (PerkinElmer AL259), and MCP1 (PerkinElmer, AL244). U937 cell culture supernatants were measured for IL-8, IP-10, and MCP-1 protein levels using AlphaLISA assay as per the manufacturer’s recommendations. The ELISA and AlphaLISA plates were read using the Varioskan LUX multimode microplate reader (Thermo Scientiﬁc, Waltham, MA, USA).

PR8 virus [3] = test: Neutralization assay of mouse sera; assay type: in vivo, BALB/c mice; settings: for neutralizing antibody titer: 50 TCID50 PR8, 20 mg/kg
Protocol: The neutralization assay was performed to determine the neutralizing titers of sera obtained from mice infected with influenza virus. The procedure involved diluting the sera and subsequently heat-inactivating it at 56℃ for 30 minutes, followed by its combination with 100 TCID50 PR8 virus and incubation at 37℃ for 1 hour. The mixture was added to pre-seeded MDCK cells and incubated at 37℃ for 1 hour. Subsequently, the medium was replaced with fresh DMEM and further cultured at 37℃ for 24 hours. Virus production in the supernatant was quantified by assessing virus neuraminidase activity on a black opaque 96-well plate (PerkinElmer, 6005270) using a substrate of 20 µM 2'-(4-methylumbelliferyl)-α-D-N-acetylneuraminic acid (MUNANA, Sigma, M8639) dissolved in MES solution [33 mmol/L 2-(N-morpholino) ethanesulfonic acid and 4 mmol/L CaCl2, pH = 6.5]. The reaction mixture was then incubated at 37℃ for an additional period of 2 hours. The reaction was terminated by the addition of a stop solution (0.14 mol/L NaOH in 83% ethanol). Fluorescence intensity was measured using multimode plate readers (Varioskan Lux, Thermoscientific, USA) with an excitation wavelength of 355 nm and an emission wavelength of 485 nm. The relative virus production was determined based on the fluorescence intensity, which correlated to the cleavage of MUNANA by viral neuraminidase. The serum neutralization titer, representing the dilution fold of serum required to achieve 50% virus neutralization, was determined using Graphpad software ([47]).

[4] = system: TNF-α, RANTES, IP-10, IL-10, MIP-1α, IL-8, MCP-1, and IL-6; test: ELISA of pro-inflammatory cytokines and chemokines in BALF of infected mice; assay type: in vivo; settings: 300 TCID50; 20 mg/kg/d; day 7 p.i.; versus placebo
Protocol: Mouse IL-10 (Cat. No. 431414), IL-6 (Cat. No. 431304), and TNF-α (Cat. No. 430901) ELISA kits were obtained from BioLegend (San Diego, USA). Mouse IL-8 (CME0008), MCP-1 (CME0046), and IP-10 (CME0051) ELISA kits were purchased from 4A Biotech (Beijing, China). Mouse CCL3/MIP-1α (EK261/2-96) ELISA kit was bought from Multi Sciences (Hangzhou, China). Mouse CCL5/RANTES (BSEM-048–96T) ELISA kit was obtained from Biosharp (Hefei, China). The ELISA was conducted by following the manufacturer’s instructions.

## CNS(=O)(=O)C[C@H]1CC[C@H](N(C)c2ncnc3[nH]ccc23)CC1 [Oclacitinib maleate]
MCP1
  IC50: 190 nM
IP-10
  IC50: 180 nM
U937 cells
  CC50: 50000 nM
PR8 virus [1]
  viral titers in the BALF: no significant differences
[2]
  water solubility: high water solubility
IL-8
  IC50: 50 nM
PR8 virus [3]; 14 dpi
  change in neutralization antibody titers compared to untreated mice: slight decrease
  neutralizing antibody titer: 690
PR8 virus [3]; 21 dpi
  change in neutralization antibody titers compared to untreated mice: no difference
  neutralizing antibody titer: 1,087
PR8 virus [3]; 7 dpi
  neutralizing antibody titer: 177
[4]
  production of all eight cytokines and chemokines (TNF-α, RANTES, IP-10, IL-10, MIP-1α, IL-8, MCP-1, IL-6) in BALF: significantly reduced
